Structures can show the parent of a compound that is named as a salt.
What was measured:
Format in all cases: cell-based
Settings in all cases: lowest concentration inhibiting 95% of bacterial growth; in the presence of β lactamase inhibitor Relebactam 4 μg/mL; 35±2° C. for 22 hours; tested range 100 μM to 0.098 μM
[1] = tested on: Escherichia coli expressing NDM-1 (CLB30016); assay: Antibiotic activity: growth inhibitory concentration (OD600), Escherichia coli CLB30016
Protocol: (§1) Antibiotic Activity: Determination of Growth Inhibitory Concentration
(§2) The concentrations of compounds required to inhibit the growth of various strains of bacteria were determined in an assay that assessed bacterial growth by measuring optical density at 600 nm (OD600). The bacterial strains tested included the clinical strains Escherichia coli expressing NDM-1 (CLB30016), Klebsiella pneumoniae expressing KPC-1 (CL6569), Acinetobacter baumannii expressing TEM-1, AmpC, and Oxa-24/40 (CL6188) and Pseudomonas aeruginosa expressing AmpC (CL5701). All compounds were tested in the presence of a β lactamase inhibitor (BLi, Relebactam) in 384-well microplates. The clinical strains were stored as frozen single use stocks, thawed and diluted into 1.1× cation-adjusted Mueller-Hinton II broth to achieve approximately 2×10^5 CFU/mL. Test compounds were dissolved in DMSO and diluted 1:50 in the assay, resulting in a final concentration range of 100 μM to 0.098 μM. […] At the end of the incubation, absorbance at 600 nm was determined using a spectrophotometer. Inhibition was quantitated by identifying the lowest concentration of test compound that was required to inhibit 95% of the growth of the bacteria. The results for Examples 1-126 are reported in Table I, expressed as the concentration of compound that inhibited 95% of bacterial growth (Minimum Inhibitory Threshold Concentration; MITC95).

[2] = tested on: Klebsiella pneumoniae expressing KPC-1 (CL6569); assay: Antibiotic activity: growth inhibitory concentration (OD600), Klebsiella pneumoniae CL6569
Summary of the method: (§3)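 Clinical strains at ~2×10^5 CFU/mL in cation-adjusted Mueller-Hinton II broth, with relebactam at 4 μg/mL final; compounds 100 μM to 0.098 μM final. After 22 hours at 35±2° C, OD600 read; MITC95 is lowest concentration giving 95% growth inhibition.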

[3] = tested on: Acinetobacter baumannii expressing TEM-1, AmpC, and Oxa-24/40 (CL6188); assay: Antibiotic activity: growth inhibitory concentration (OD600), Acinetobacter baumannii CL6188
Protocol: as §1, §2

[4] = tested on: Pseudomonas aeruginosa expressing AmpC (CL5701); assay: Antibiotic activity: growth inhibitory concentration (OD600), Pseudomonas aeruginosa CL5701
Summary of the method: as §3

Compound	EC_CLB30016 MITC95 [1]	KP_CL6569 MITC95 [2]	AB_CL6188 MITC95 [3]	PA_CL5701 MITC95 [4]
C[n+]1cc(-c2ccc(OC[C@H](O/N=C(\C(=O)N[C@@H]3C(=O)N(OS(=O)(=O)[O-])C3(C)C)c3csc(N)n3)C(=O)O)cc2)c(N)n1CCCN [Example 50, (S)-3-((Z)-2-(((S)-2-(4-(5-Amino-1-(3-aminopropyl)-2-methyl-1H-pyrazol-2-ium-4-yl)phenoxy)-1-carboxyethoxy)imino)-2-(2-aminothiazol-4-yl)acetamido)-2,2-dimethyl-4-oxoazetidin-1-yl sulfate]	6.25 µM	0.3906 µM	3.125 µM	6.25 µM
(S)-3-((Z)-2-(((S)-2-(4-(2-(3-amino-2-fluoro-2λ^3-propyl)-1-(azetidin-3-ylmethyl)-1H-pyrazol-2-ium-4-yl)phenoxy)-1-carboxyethoxy)imino)-2-(2-aminothiazol-4-yl)acetamido)-2,2-dimethyl-4-oxoazetidin-1-yl sulfate [Example 121]	6.25 µM	0.1953 µM	1.563 µM	1.563 µM
C[n+]1cc(-c2ccc(OC[C@H](O/N=C(\C(=O)N[C@@H]3C(=O)N(OS(=O)(=O)[O-])C3(C)C)c3csc(N)n3)C(=O)O)cc2)cn1CCN [Example 17, (S)-3-((Z)-2-(((S)-2-(4-(1-(2-aminoethyl)-2-methyl-1H-pyrazol-2-ium-4-yl)phenoxy)-1-carboxyethoxy)imino)-2-(2-aminothiazol-4-yl)acetamido)-2,2-dimethyl-4-oxoazetidin-1-yl sulfate]	–	0.3906 µM	–	6.25 µM
CC1(C)[C@H](NC(=O)/C(=N\O[C@@H](COc2ccc(-c3cn(CCCN)[n+](CC4CNC4)c3)cc2)C(=O)O)c2csc(N)n2)C(=O)N1OS(=O)(=O)[O-] [Example 97, (S)-3-((Z)-2-(((S)-2-(4-(1-(3-aminopropyl)-2-(azetidin-3-ylmethyl)-1H-pyrazol-2-ium-4-yl)phenoxy)-1-carboxyethoxy)imino)-2-(2-aminothiazol-4-yl)acetamido)-2,2-dimethyl-4-oxoazetidin-1-yl sulfate]	–	0.125 µM	–	1.781 µM
Cn1c(-c2ccc(OC[C@H](O/N=C(\C(=O)N[C@@H]3C(=O)N(OS(=O)(=O)O)C3(C)C)c3csc(N)n3)C(=O)O)cc2)cn(CCCN)c1=NCCN (stereo in doubt) [Example 57, (S)-3-(4-((Z)-2-((2-aminoethyl)imino)-1-(3-aminopropyl)-3-methyl-2,3-dihydro-1H-imidazol-4-yl)phenoxy)-2-((((Z)-1-(2-aminothiazol-4-yl)-2-(((S)-2,2-dimethyl-4-oxo-1-(sulfooxy)azetidin-3-yl)amino)-2-oxoethylidene)amino)oxy)propanoic acid]	–	0.1953 µM	–	3.125 µM
C[n+]1nc(NCCCN)ccc1-c1ccc(OC[C@H](O/N=C(\C(=O)N[C@@H]2C(=O)N(OS(=O)(=O)[O-])C2(C)C)c2csc(N)n2)C(=O)O)cc1 [Example 122, (S)-3-((Z)-2-(((S)-2-(4-(3-((3-aminopropyl)amino)-1-methylpyridazin-1-ium-6-yl)phenoxy)-1-carboxyethoxy)imino)-2-(2-aminothiazol-4-yl)acetamido)-2,2-dimethyl-4-oxoazetidin-1-yl sulfate]	–	0.1953 µM	–	3.125 µM
CC1(C)[C@H](NC(=O)/C(=N\O[C@@](C)(COc2ccc(C3CN=C(NCCN)NC3)cc2)C(=O)O)c2csc(N)n2)C(=O)N1OS(=O)(=O)O (stereo partly drawn) [Example 95, (2S)-3-(4-(2-((2-aminoethyl)amino)-1,4,5,6-tetrahydropyrimidin-5-yl)phenoxy)-2-((((Z)-1-(2-aminothiazol-4-yl)-2-(((S)-2,2-dimethyl-4-oxo-1-(sulfooxy)azetidin-3-yl)amino)-2-oxoethylidene)amino)oxy)-2-methylpropanoic acid]	–	0.3906 µM	–	3.125 µM

From patent US11230543B2, “Biaryl monobactam compounds and methods of use thereof for the treatment of bacterial infections” (priority 2015, dated 2022)
